# Test: method code G-GLC, from Herzke, D.; Rotard, W. (1999). Physical-chemical properties of polyfluorinated dibenzodioxins and dibenzofurans. Organohalogen Compounds, 41, 171-174.
row,logP,SMILES
1,3.5,Fc1cc2c(cc1F)Oc1cc(F)c(F)cc1O2
2,5.6,Clc1ccc2oc3ccccc3c2c1Cl
3,4,Fc1cc2oc3c(F)c(F)c(F)c(F)c3c2cc1F
4,3.8,Fc1cc2c(cc1F)Oc1c(F)c(F)c(F)c(F)c1O2
5,4.4,Fc1ccc2oc3c(F)c(F)c(F)c(F)c3c2c1F
6,3.1,Fc1cc(F)c2c(c1F)Oc1c(F)c(F)cc(F)c1O2
7,3.1,Fc1cc2c(c(F)c1F)Oc1c(F)cc(F)c(F)c1O2
8,3.3,Fc1ccc2c(c1)Oc1ccc(F)cc1O2
9,3.6,Fc1ccc2c(c1)Oc1c(F)c(F)c(F)c(F)c1O2
10,3.4,Fc1cc2c(oc3ccccc32)c(F)c1F
11,3,Fc1c(F)c(F)c2c(c1F)Oc1c(F)c(F)c(F)c(F)c1O2

row,SMILES,logP
1,Clc1cc2c(oc3ccccc32)c(Cl)c1Cl,6.4
2,Clc1ccc2c(c1)Oc1ccc(Cl)cc1O2,5.7
3,Clc1c(Cl)c(Cl)c2c(c1Cl)Oc1c(Cl)c(Cl)c(Cl)c(Cl)c1O2,8.2

# Reference: the SangsterLogP compilation
